Source: publication PMC3723632, “A Multi-targeted Drug Candidate with Dual Anti-HIV and Anti-HSV Activity” (PLoS Pathogens, 2013)

Columns and labels:
[1] = tested on: HSV-2 (G); assay: HSV-2 replication in human ex vivo tonsillar (lymphoid) tissue, viral DNA; type: cell-based; settings: for EC99 (viral load reduced by 2 orders of magnitude): tonsilar tissue, RT-PCR assay; for HSV-2 DNA copies: human lymphoid tissue ex vivo
Text: Figure 5 Suppression of HSV-2 in infected human ex vivo tonsillar tissue by adefovir and PMEO-DAPym. Blocks of human tonsillar tissue were inoculated ex vivo with HSV-2 (G) and treated or not with adefovir or PMEO-DAPym. We monitored HSV-2 (G) replication by measuring viral DNA in culture media at different times throughout the culture period. Presented are means ± SEM of cumulative HSV-2 (G) replication in tissues from two to six donors. For each donor, data represent pooled viral release from 27 tissue blocks.
Figure 7 Suppression of HSV-2 in single-infected and HIV-1 co-infected human ex vivo tonsillar tissue by adefovir and PMEO-DAPym. Panels A and B: Blocks of human tonsillar tissue from five different donors were co-inoculated ex vivo with HSV-2 (G) and HIV-1 (LAI) and treated or not with adefovir or PMEO-DAPym (1 µg/ml). For tissue from each donor, we monitored replication of both viruses by evaluating their accumulation in the culture media bathing 27 tissue blocks at different times throughout the culture. We evaluated HIV-1 replication by measuring p24gag and HSV-2 (G) replication by measuring HSV-2 viral DNA. Panel A: Presented are kinetics of HSV-2 (G) and HIV-1 (LAI) replication (insert). Each point represents the mean ± SEM of viral replication in tissues from five donors. Panel B: Presented are means ± SEM of cumulative HSV-2 (G) and HIV-1 (LAI) replication (insert).
Human tonsillar tissues were obtained from patients undergoing routine tonsillectomy at the Children's National Medical Center (Washington, DC) under IRB-approved protocol. Cervical tissues were obtained through the National Disease Research Interchange (NDRI, Philadelphia, PA). Tissues were dissected into blocks of about 2×2×2 mm and placed onto collagen sponge gels in culture medium at the air-liquid interface as described earlier. For tonsillar tissue for each experimental condition, 27 tissue blocks (9 blocks/well filled with 3 ml of medium) were inoculated with HSV-1 (strain F) or HSV-2 (strains G and MS). In coinfection experiments, tissue blocks were sequentially infected with HSV-2 (G) and HIV-1 (IIIB) (obtained from the Rush University Virology Quality Assurance Laboratory, Chicago, IL). Drugs (adefovir and PMEO-DAPym) were added to the culture medium 12 h prior to viral infection and replenished at each culture medium change.
(§1) For cervico-vaginal tissue, 16 blocks were infected by immersion in HSV-2G-containing medium and maintained on the gelfoam rafts. Adefovir was added at the time of infection and replenished at each culture medium change. HSV replication was evaluated from the release of viral DNA into the culture medium as measured with quantitative real-time PCR [18]. We evaluated HIV-1 replication from the release of p24 capsid antigen using a bead-based assay.

[2] = tested on: HIV-1 (LAI); assay: HIV-1 replication (p24) in coinfected human ex vivo lymphoid tissue; type: cell-based; settings: lymphoid tissue coinfected with HIV-1 and HSV-2, 1 µg/ml
Experimental: Figure 7 Suppression of HSV-2 in single-infected and HIV-1 co-infected human ex vivo tonsillar tissue by adefovir and PMEO-DAPym. Panels A and B: Blocks of human tonsillar tissue from five different donors were co-inoculated ex vivo with HSV-2 (G) and HIV-1 (LAI) and treated or not with adefovir or PMEO-DAPym (1 µg/ml). For tissue from each donor, we monitored replication of both viruses by evaluating their accumulation in the culture media bathing 27 tissue blocks at different times throughout the culture. We evaluated HIV-1 replication by measuring p24gag and HSV-2 (G) replication by measuring HSV-2 viral DNA. Panel A: Presented are kinetics of HSV-2 (G) and HIV-1 (LAI) replication (insert). Each point represents the mean ± SEM of viral replication in tissues from five donors. Panel B: Presented are means ± SEM of cumulative HSV-2 (G) and HIV-1 (LAI) replication (insert). […]
For cervico-vaginal tissue, 16 blocks were infected by immersion in HSV-2G-containing medium and maintained on the gelfoam rafts. […] HSV replication was evaluated from the release of viral DNA into the culture medium as measured with quantitative real-time PCR [18]. We evaluated HIV-1 replication from the release of p24 capsid antigen using a bead-based assay.

[3] = tested on: HSV-2 (G); assay: HSV-2 replication in human cervico-vaginal explants; type: cell-based; settings: 1 µg/ml
Experimental: Figure 6 Suppression of HSV-2 in human cervico-vaginal tissues by adefovir and PMEO-DAPym. Blocks of human cervico-vaginal tissues were inoculated ex vivo with HSV-2 (G) or co-infected with HIV-1 and HSV-2 and treated or not with adefovir (1 µg/ml) or PMEO-DAPym (1 µg/ml). We monitored HSV-2 (G) replication by measuring viral DNA accumulated in culture media at different times throughout the culture period. Presented is cumulative HSV-2 (G) replication, with data representing pooled viral release from 16 tissue blocks.
as §1

[4] = tested on: HSV-1 or HSV-2; assay: Topical treatment of athymic nude mice inoculated with HSV-1 or HSV-2; type: in vivo; settings: topical gel twice daily for 5 days, p<0.05
Experimental: Figure 8 Effects of adefovir and PMEO-DAPym on mortality in mice inoculated with HSV-1 or HSV-2. Groups of five nu/nu mice were inoculated with HSV-1 (panel A) or HSV-2 (panel B) on the lumbosacral area. Each cohort was then subjected to topical treatment twice daily for 5 consecutive days, starting on the day of viral infection. The placebo groups received a similar treatment with the test formulation without drug. Mortality was recorded over a period of 30 days. Animals were euthanized when more than 30% loss in body weight or development of paralysis occurred. We estimated survival rates according to the Kaplan-Meier method and compared them using the log-rank test (Mantel-Cox using GraphPad Prism).
Female adult NMRI athymic nude mice or hairless mice (weighing ∼20 g and approximately 4 weeks old) were scarified on the lumbosacral area over a surface of about 1 cm^2 with 5×10^3 PFU of HSV-1 (KOS) or 5×10^2 PFU of HSV-2 (G).
Formulations of adefovir and PMEO-DAPym (0.3% and 1%) in a gel (identical to that used in the CAPRISA 004 trial) were applied topically twice a day for a period of 5 days starting 1–2 h post infection. In each experiment, a group of animals was treated with a placebo formulation that contained exactly the same vehicle but without drug. […] Development of lesions and mortality were recorded over a 1-month period. […]

Nc1ncnc2c1ncn2CCOCP(=O)(O)O [Adefovir, 9-(2-phosphonylmethoxyethyl)adenine]
EC99 (viral load reduced by 2 orders of magnitude) [1]: 5 µg/mL
HIV-1 inhibition [2]: 2 orders of magnitude
inhibition of HSV-2 infection [3]: markedly inhibited
virus-related morbidity and survival [4]: significantly delayed virus-related morbidity and prolonged the survival of the mice

Nc1cc(OCCOCP(=O)(O)O)nc(N)n1 [PMEO-DAPym, 6-phosphonylmethoxyethoxy-2,4-diaminopyrimidine]
inhibition at 0.3 µg/mL ([1]; Human alphaherpesvirus 2, human lymphoid tissue ex vivo, 0.3 µg/mL, read-out: Inhibition of viral replication (% to control)): 52.8%
inhibition at 3 µg/mL ([1]; Human alphaherpesvirus 2, human lymphoid tissue ex vivo, 3 µg/mL, read-out: Inhibition of viral replication (% to control)): > 99%
HSV-2 DNA copies ([1]; 0.3 µg/mL): 5.76 e+7 copies
HSV-2 DNA copies ([1]; 3 µg/mL): 8.08 e+5 copies
EC99 (viral load reduced by 2 orders of magnitude) [1]: 2 µg/mL
HIV-1 inhibition [2]: 2 orders of magnitude
inhibition of HSV-2 infection [3]: markedly inhibited
virus-related morbidity and survival [4]: significantly delayed virus-related morbidity and prolonged the survival of the mice
